Results published in patent publication US20100075343A1, “NOVEL PEPTIDES” (priority 2007, published 2010).

Columns and labels:
[1] = system: medulla oblongata of apoaequorin-expressing mice; test: Intracellular calcium ion increase (aequorin luminescence), medulla oblongata; assay type: cell-based, mouse; settings: peptide at final concentrations of 1 μmol/L and 5 μmol/L
Procedure: (§1) A hypothalamus, pituitary gland, kidney, heart, blood vessel, or a portion of brain tissue is collected from transgenic mice systemically expressing apoaequorin (WO02/010371) produced by introducing an apoaequorin gene expression vector into fertilized eggs. The obtained hypothalamus, pituitary gland, kidney, heart, blood vessel, or brain tissue is cut finely into pieces, suspended in a medium containing coelenterazine, and then incubated to incorporate coelenterazine into the cells to form aequorin (a complex of apoaequorin and coelenterazine). Since aequorin luminesces upon binding to intracellular calcium ions, the relative luminescence level in cells before and after addition of a medium containing the peptide or a pharmaceutically acceptable salt thereof is measured in a luminometer every second over time and is used as an indicator of intracellular calcium ion concentration. Increase in the relative luminescence level due to addition of the peptide or pharmaceutically acceptable salt thereof confirms that the peptide or pharmaceutically acceptable salt thereof has the activity to increase intracellular calcium ion concentration.
(§2) Whether Peptides 1 to 8 synthesized in Example 2 have the activity of increasing intracellular calcium ion concentration was investigated using the organs of transgenic mice introduced with the apoaequorin gene and systemically expressing apoaequorin (hereinafter referred to as apoaequorin-expressing mice). In apoaequorin-expressing mouse cells, light is emitted when apoaequorin binds to a calcium ion in the presence of the luminescent substrate coelenterazine and thus the intracellular calcium ion concentration can be monitored. Patent Document (WO02/010371) discloses the method for producing apoaequorin-expressing mice, method for evaluating biologically active substances that use biological samples derived from the mice, and experimental results of evaluating biologically active peptides using the mouse organs as shown below. […] Therefore, apoaequorin-expressing mice can be used in the evaluation of the physiological activities of novel peptides.
(§3) Apoaequorin-expressing mice were produced according to the method disclosed in Reference Example 4 of Patent Document (WO02/010371). The apoaequorin-expressing mice were sacrificed, individual organs including thymus, hypothalamus, spleen, bone, aorta, heart, kidney, adrenal gland, pancreas, pituitary gland, uterus, medulla oblongata, and spinal cord were removed; and each of the organs was cut into small cubes of approximately 1 to 2 mm^3. Next, in 5-mL tubes (Rohren-Tubes; manufactured by Sarstedt, No. 55.476), three portions of each of the prepared organs were added to 50 μL of a 10 μmol/L solution of coelenterazine (manufactured by Molecular Probes) dissolved in RPMI 1640 medium, and these were cultured at 37° C. for three hours. After culturing, RPMI 1640 medium was added, and then Peptides 1 to 5 dissolved in RPMI 1640 medium were added 25 seconds after the addition of RPMI 1640 until each peptide had final concentrations of 1 μmol/L and of 5 μmol/L, and the relative luminescence levels were measured every second immediately after the addition of RPMI 1640 medium by using a luminometer (AutoLumat LB953, manufactured by Berthold).

[2] = system: uterus of apoaequorin-expressing mice; test: Intracellular calcium ion increase (aequorin luminescence), uterus; assay type: cell-based, mouse; settings: peptide at final concentrations of 1 μmol/L and 5 μmol/L
Procedure: (§4) A hypothalamus, pituitary gland, kidney, heart, blood vessel, or a portion of brain tissue is collected from transgenic mice systemically expressing apoaequorin (WO02/010371) produced by introducing an apoaequorin gene expression vector into fertilized eggs. The obtained hypothalamus, pituitary gland, kidney, heart, blood vessel, or brain tissue is cut finely into pieces, suspended in a medium containing coelenterazine, and then incubated to incorporate coelenterazine into the cells to form aequorin (a complex of apoaequorin and coelenterazine). Since aequorin luminesces upon binding to intracellular calcium ions, the relative luminescence level in cells before and after addition of a medium containing the peptide or a pharmaceutically acceptable salt thereof is measured in a luminometer every second over time and is used as an indicator of intracellular calcium ion concentration. Increase in the relative luminescence level due to addition of the peptide or pharmaceutically acceptable salt thereof confirms that the peptide or pharmaceutically acceptable salt thereof has the activity to increase intracellular calcium ion concentration. […]

[3] = system: spinal cord of apoaequorin-expressing mice; test: Intracellular calcium ion increase (aequorin luminescence), spinal cord; assay type: cell-based, mouse; settings: peptide at final concentrations of 1 μmol/L and 5 μmol/L
Procedure: as §4

[4] = system: hypothalamic cells of the apoaequorin-expressing mice; test: Intracellular calcium ion increase (aequorin luminescence), hypothalamus; assay type: cell-based, mouse; settings: for increase of intracellular calcium concentration in hypothalamic cells (RLU per second): 5 μmol/L peptide, added at 25 seconds; for luminescence (intracellular calcium ion increase) in hypothalamus: peptide at final concentrations of 1 μmol/L and 5 μmol/L
Procedure: as §1, §2, §3

[5] = system: spleen of apoaequorin-expressing mice; test: Intracellular calcium ion increase (aequorin luminescence), spleen; assay type: cell-based, mouse; settings: peptide at final concentrations of 1 μmol/L and 5 μmol/L
Procedure: as §1, §2
(§5) Apoaequorin-expressing mice were produced according to the method disclosed in Reference Example 4 of Patent Document (WO02/010371). […] After culturing, RPMI 1640 medium was added, and then Peptides 1 to 5 dissolved in RPMI 1640 medium were added 25 seconds after the addition of RPMI 1640 until each peptide had final concentrations of 1 μmol/L and of 5 μmol/L, and the relative luminescence levels were measured every second immediately after the addition of RPMI 1640 medium by using a luminometer (AutoLumat LB953, manufactured by Berthold).

[6] = system: cardiac cells of the apoaequorin-expressing mice; test: Intracellular calcium ion increase (aequorin luminescence), heart; assay type: cell-based, mouse; settings: for increase of intracellular calcium concentration in cardiac cells (RLU per second): 5 μmol/L peptide, added at 25 seconds; for luminescence (intracellular calcium ion increase) in heart: peptide at final concentrations of 1 μmol/L and 5 μmol/L
Procedure: as §1, §2, §3

[7] = system: kidney cells of the apoaequorin-expressing mice; test: Intracellular calcium ion increase (aequorin luminescence), kidney; assay type: cell-based, mouse; settings: for increase of intracellular calcium concentration in kidney cells (RLU per second): 1 μmol/L peptide, added at 25 seconds; for luminescence (intracellular calcium ion increase) in kidney: peptide at final concentrations of 1 μmol/L and 5 μmol/L
Procedure: as §1, §2, §3

[8] = system: pituitary cells of the apoaequorin-expressing mice; test: Intracellular calcium ion increase (aequorin luminescence), pituitary gland; assay type: cell-based, mouse; settings: for increase of intracellular calcium concentration in pituitary cells (RLU per second): added at 25 seconds; for luminescence (intracellular calcium ion increase) in pituitary gland: peptide at final concentrations of 1 μmol/L and 5 μmol/L
Procedure: as §1, §2, §3

[9] = system: aortic cells of the apoaequorin-expressing mice; test: Intracellular calcium ion increase (aequorin luminescence), aorta; assay type: cell-based, mouse
Procedure: as §1, §2, §5

[10] = system: thymus of apoaequorin-expressing mice; test: Intracellular calcium ion increase (aequorin luminescence), thymus; assay type: cell-based, mouse; settings: peptide at final concentrations of 1 μmol/L and 5 μmol/L
Procedure: as §1, §2, §5

[11] = system: blood vessels of apoaequorin-expressing mice; settings: final concentration of 1 μmol/L; reported in WO02/010371; cited from earlier work
[12] = system: uterus of apoaequorin-expressing mice; settings: final concentration of 1 μmol/L; reported in WO02/010371; cited from earlier work
[13] = system: antiserum against ESPGPERVW peptide of human VGF; assay type: binding; settings: 1, 10, and 100 pmol of the peptides
Procedure: Namely, to 100 μL of antiserum diluted 9×10^5 folds with RIA buffer, 100 μL of RIA buffer containing a fixed amount of [^125I]-labeled Peptide 1 (approximately 20000 cpm, 500-550 Bq, approximately 9 fmol in terms of peptide amount) and 100 μL of RIA buffer solutions each containing a sequentially diluted VGF-derived peptide were added, this was incubated at 4° C. for 40 hours, and the labeled Peptide 1 and VGF-derived peptide were competitively bound to the antibody in the antiserum. As controls, reactions that use RIA buffer instead of the antiserum to measure non-specific binding, and reactions that use RIA buffer instead of VGF-derived peptide solutions to measure the maximum binding level were carried out. Reactions for non-specific binding were performed in quadruplicates, and the other reactions were performed in duplicates, and for each of the reactants, the immune complex was precipitated as in the above-mentioned antibody titer measurements, and its radioactivity (cpm) was measured. The average radioactivity of non-specific binding reaction is defined as non-specific binding level N, the radioactivity value for each VGF-derived peptide addition reaction is defined as Y, and the radioactivity value of maximum binding reaction is defined as Z. The percentage ratio (B/B0) of antiserum specific binding level (B) with peptide addition to the maximum binding level (B0), was determined using the following formula.
B/B0(%)={(Y−N)/(Z−N)}×100
Accordingly, the amount of peptide that achieves 50% B/B0, more specifically, the amount of peptide that yields 50% inhibition of the maximum binding level, was used as an indicator of the peptide binding activity to the antiserum.

[14] = system: adrenal glands of apoaequorin-expressing mice; settings: final concentration of 1 μmol/L; reported in WO02/010371; cited from earlier work
[15] = system: male rats; settings: direct administration to the PVN of male rats; Non-patent Document 7; cited from earlier work
[16] = system: rats fed with high-calorie diets; settings: administered into the rat ventricle, Non-patent Document 6; cited from earlier work

Substance | luminescence (intracellular calcium ion increase) in medulla oblongata [1] | luminescence (intracellular calcium ion increase) in uterus [2] | luminescence (intracellular calcium ion increase) in spinal cord [3] | increase of intracellular calcium concentration in hypothalamic cells (RLU per second) [4] | luminescence (intracellular calcium ion increase) in hypothalamus [4] | luminescence (intracellular calcium ion increase) in spleen [5] | increase of intracellular calcium concentration in cardiac cells (RLU per second) [6] | luminescence (intracellular calcium ion increase) in heart [6] | increase of intracellular calcium concentration in kidney cells (RLU per second) [7] | luminescence (intracellular calcium ion increase) in kidney [7] | increase of intracellular calcium concentration in pituitary cells (RLU per second) ([8]; 5 μmol/L peptide) | luminescence (intracellular calcium ion increase) in pituitary gland [8] | luminescence (intracellular calcium ion increase) in thymus [10] | further results
Peptide 5: amino acid sequence at position 211 to 236 in rat VGF (ASWGEFQARVPERAPLPPSVPSQFQA; synthetic Peptide 5, VGF-related peptide, rat VGF positions 211-236) | luminescence was observed | luminescence was observed | luminescence was observed | increase of intracellular calcium concentration | luminescence was observed | luminescence was observed | increase of intracellular calcium concentration | luminescence was observed | increase of intracellular calcium concentration | luminescence was observed | increase of intracellular calcium concentration | luminescence was observed |  | 
Peptide 6: amino acid sequence at position 353 to 372 in rat VGF (GLQETQQERENEREEEAEQE; synthetic Peptide 6, VGF-related peptide, rat VGF positions 353-372) | luminescence was observed | luminescence was observed |  | increase of intracellular calcium concentration | luminescence was observed | luminescence was observed |  | luminescence was observed | increase of intracellular calcium concentration | luminescence was observed | increase of intracellular calcium concentration | luminescence was observed | luminescence was observed | increase of intracellular calcium concentration in aortic cells (RLU per second) ([9]; 1 μmol/L peptide, added at 25 seconds): increase of intracellular calcium concentration; luminescence (intracellular calcium ion increase) in aorta ([9]; peptide at final concentrations of 1 μmol/L and 5 μmol/L): luminescence was observed
Peptide 8: amino acid sequence at position 423 to 430 in rat VGF (SQEEAPGH; synthetic Peptide 8, VGF-related peptide, rat VGF positions 423-430) | luminescence was observed |  | luminescence was observed |  |  | luminescence was observed | increase of intracellular calcium concentration | luminescence was observed |  |  |  | luminescence was observed | luminescence was observed | increase of intracellular calcium concentration in pituitary cells (RLU per second) ([8]; 1 μmol/L peptide): increase of intracellular calcium concentration
angiotensin II (DRVYIHPF) [non-VGF peptide] |  |  |  |  |  |  |  |  |  |  |  |  |  | luminescence in blood vessels [11]: strong luminescence was observed; luminescence in uterus [12]: strong luminescence was observed; inhibition of binding of the antiserum to labeled peptide [13]: none of these peptides showed inhibition; luminescence in adrenal glands [14]: strong luminescence was observed
rat VGF (556-576): known peptide, positions 556-576 of the rat VGF amino acid sequence |  |  |  |  |  |  |  |  |  |  |  |  |  | erection inducing activity [15]: this activity was not observed; suppression of weight gain [16]: activity of suppressing weight gain
